This note sets out measurements from PubChem BioAssay (NCI).

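Grown in 96-well plates, cells were treated for 48 hours with each compound at five concentrations. Insufficient inhibition: endpoint recorded as highest concentration tested. TGI: total growth inhibition.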

Test systems include RPMI-8226 leukemia; 786-0 renal; IGROV1 ovarian; SK-MEL-28 melanoma; MOLT-4 leukemia; CCRF-CEM leukemia; UACC-257 melanoma; HCT-116 colon; SN12C renal; HCT-15 colon.
Assay in all cases: NCI-60 cell line screen, 48 h

Turning to `O=C(O)C(CO)NC(=O)C1C(C(=O)O)C(c2ccccc2[N+](=O)[O-])C=C(c2ccco2)N1c1ccncc1` (stereo not given), the TGI in the experiment on RPMI-8226 leukemia was 4.22 µM; in the experiment with 786-0 renal it was 6.01 µM; in the experiment with IGROV1 ovarian it was 4.15 µM; in the experiment with SK-MEL-28 melanoma, 22.5 µM; in the experiment with MOLT-4 leukemia, greater than 22.5 µM; in the experiment with CCRF-CEM leukemia, 5.32 µM. Besides, the TGI in the experiment with UACC-257 melanoma is 9.9 µM; with HCT-116 colon, 3.08 µM; with SN12C renal it was 25.4 µM; with HCT-15 colon it was 4.39 µM.

`CCCN(CCC)c1c([N+](=O)[O-])cc(C(=O)N(C)C)cc1[N+](=O)[O-]`: the TGI with RPMI-8226 leukemia, with 786-0 renal, in the experiment on IGROV1 ovarian, with SK-MEL-28 melanoma, with MOLT-4 leukemia and in the experiment on CCRF-CEM leukemia was greater than 100 µM throughout. Further, the TGI in the experiment on UACC-257 melanoma, in the experiment with HCT-116 colon, in the experiment on SN12C renal and in the experiment on HCT-15 colon was greater than 100 µM throughout.

As for `Cc1csc2n(C)c(=O)c3ccccc3[n+]12`, the TGI with RPMI-8226 leukemia, with 786-0 renal, with IGROV1 ovarian, in the experiment on SK-MEL-28 melanoma, with MOLT-4 leukemia and in the experiment on CCRF-CEM leukemia was greater than 100 µM each time. Further, the TGI with UACC-257 melanoma, in the experiment on HCT-116 colon, with SN12C renal and with HCT-15 colon was greater than 100 µM in each case.

On to `NC(=S)N/N=C(\C(=O)Nc1ccc(Cl)c(Cl)c1)C1=NN(c2ccccc2)C(c2cccc([N+](=O)[O-])c2)CC1=O` (stereo not given), for which the TGI in the experiment with RPMI-8226 leukemia is 14.4 µM; in the experiment with 786-0 renal, 36.8 µM; with IGROV1 ovarian it was 72.6 µM; in the experiment on SK-MEL-28 melanoma, greater than 100 µM; in the experiment with MOLT-4 leukemia, 70.9 µM; with CCRF-CEM leukemia, 62 µM. In addition, the TGI in the experiment on UACC-257 melanoma is 83.1 µM; with HCT-116 colon it was 11.6 µM; with SN12C renal it was 38.5 µM; with HCT-15 colon, greater than 100 µM.

With `OCCNc1nc2c(N3CCCC3)nc(N3CCNCC3)nc2nc1NCc1ccccc1`, the TGI in the experiment with RPMI-8226 leukemia was 38.4 µM; in the experiment on 786-0 renal, 28 µM; in the experiment on IGROV1 ovarian, 25.5 µM; in the experiment with SK-MEL-28 melanoma, 32.5 µM; in the experiment with MOLT-4 leukemia, 33.3 µM; in the experiment on CCRF-CEM leukemia, 30 µM. For the same compound, the TGI worked out at 33.5 µM with UACC-257 melanoma, 21.9 µM in the experiment on HCT-116 colon, 30.7 µM in the experiment on SN12C renal and 32.2 µM in the experiment with HCT-15 colon.

With `Cc1ccc(CC(=O)Nc2ccc(NC(=O)CNC(=O)/C=C/c3ccc(-c4ccccc4)cc3)cc2C(=O)c2ccccc2)cc1`, the TGI with RPMI-8226 leukemia is 29.2 µM; in the experiment with 786-0 renal it was 5.48 µM; with IGROV1 ovarian, 21.7 µM; in the experiment on SK-MEL-28 melanoma it was 66.6 µM; in the experiment with MOLT-4 leukemia, 15.3 µM; in the experiment on CCRF-CEM leukemia it was 17.1 µM. The TGI with UACC-257 melanoma stood at 22.7 µM; with HCT-116 colon, 2.65 µM; with SN12C renal it was 9.93 µM; in the experiment with HCT-15 colon, 13.2 µM.

Take `Oc1ccccc1C=Nc1ccccc1N=Cc1ccccc1O`: the TGI in the experiment on RPMI-8226 leukemia, with 786-0 renal, in the experiment with IGROV1 ovarian, with SK-MEL-28 melanoma, in the experiment with MOLT-4 leukemia and with CCRF-CEM leukemia was greater than 100 µM throughout. For the same compound, the TGI in the experiment on UACC-257 melanoma, with HCT-116 colon, in the experiment with SN12C renal and in the experiment on HCT-15 colon was greater than 100 µM throughout.

On to `CCOC(=O)O/N=C1/C(c2c(O)[nH]c3ccccc23)=Nc2ccccc21`, for which the TGI with RPMI-8226 leukemia is greater than 100 µM; with 786-0 renal it was 28 µM; in the experiment on IGROV1 ovarian, 30.9 µM; in the experiment with SK-MEL-28 melanoma it was 41.8 µM; in the experiment with MOLT-4 leukemia it was greater than 100 µM; with CCRF-CEM leukemia it was 16.6 µM. In addition, the TGI in the experiment with UACC-257 melanoma was 24.6 µM; with HCT-116 colon, 13.6 µM; in the experiment with SN12C renal it was 23.2 µM; in the experiment on HCT-15 colon, 20.4 µM.

For `O=[N+]([O-])c1cc(Cl)ccc1S(=O)(=O)c1cc(Cl)cc2c1NCCC2`, the TGI in the experiment on RPMI-8226 leukemia, in the experiment on 786-0 renal, in the experiment with IGROV1 ovarian, with SK-MEL-28 melanoma, in the experiment on MOLT-4 leukemia and in the experiment on CCRF-CEM leukemia was greater than 100 µM in each case. The TGI with UACC-257 melanoma is 64.8 µM; in the experiment on HCT-116 colon, greater than 100 µM; with SN12C renal it was greater than 100 µM; in the experiment on HCT-15 colon, greater than 100 µM.

As to `S=C1CSc2c(cnc3ccccc23)N1`, the TGI in the experiment with RPMI-8226 leukemia, with 786-0 renal, in the experiment on IGROV1 ovarian, in the experiment on SK-MEL-28 melanoma, in the experiment with MOLT-4 leukemia and in the experiment with CCRF-CEM leukemia was greater than 100 µM in each case. In addition, the TGI with UACC-257 melanoma, in the experiment on HCT-116 colon, in the experiment on SN12C renal and in the experiment on HCT-15 colon was greater than 100 µM each time.

On to `Cc1ccnc2sc3ccccc3c(=O)c12`, for which the TGI is greater than 100 µM in the experiment with RPMI-8226 leukemia; greater than 100 µM in the experiment with 786-0 renal; greater than 100 µM with IGROV1 ovarian; greater than 100 µM with SK-MEL-28 melanoma; 79.2 µM in the experiment on MOLT-4 leukemia; greater than 100 µM with CCRF-CEM leukemia. Besides, the TGI in the experiment on UACC-257 melanoma, in the experiment with HCT-116 colon, with SN12C renal and with HCT-15 colon was greater than 100 µM throughout.

On to `CC(C)C(/C=C/c1ccccc1)=N\NC(=S)NN`, for which the TGI with RPMI-8226 leukemia was greater than 100 µM; in the experiment on 786-0 renal, greater than 100 µM; in the experiment with IGROV1 ovarian, greater than 100 µM; in the experiment on SK-MEL-28 melanoma it was greater than 100 µM; in the experiment on MOLT-4 leukemia, greater than 100 µM; with CCRF-CEM leukemia, greater than 89.9 µM. The TGI in the experiment on UACC-257 melanoma, in the experiment with HCT-116 colon, in the experiment on SN12C renal and in the experiment with HCT-15 colon was greater than 100 µM throughout.

Turning to `Cc1ccc(Nc2ccc(Nc3ccc(C)cc3S(=O)(=O)O)c3c2C(=O)c2ccccc2C3=O)c(S(=O)(=O)O)c1`, the TGI with RPMI-8226 leukemia, with 786-0 renal, in the experiment on IGROV1 ovarian, in the experiment with SK-MEL-28 melanoma, in the experiment with MOLT-4 leukemia and in the experiment on CCRF-CEM leukemia was greater than 100 µM throughout. Besides, the TGI in the experiment on UACC-257 melanoma, in the experiment with HCT-116 colon, in the experiment with SN12C renal and in the experiment on HCT-15 colon was greater than 100 µM throughout.
